Here are results for two compounds from patent US9688659B2, “Deuterated compounds for treating hematologic malignancies, and compositions and methods thereof” (NeuForm Pharmaceuticals, Inc., priority 2015, dated 2017).

A short description of series [1]: In vivo pharmacokinetic study on cynomolgus monkeys, intravenous. The note with it: for AUC Differentiation (%): D8-enasidenib vs enasidenib; for AUC: cynomolgus monkey, plasma, iv, 1 mg/kg. As for the experimental part:
Test compounds were dissolved to yield a final concentration at 0.2 mg/mL. The study conducted formulation analysis by HPLC. The four animals assigned to the study had body weights within ±20% of the mean body weight. The study was conducted in a cross-over matter with four phases to minimize individual difference. The dose level was 1 mg/Kg and the drug was administrated through intravenous (IV) route.
Blood samples (approximately 1.2 mL/sample) were collected from the […] vein at appropriate time points. Samples were placed in tubes containing sodium heparin and stored on ice until centrifuged. Blood samples were collected pre-dose and post-dose at post-dose 2 minutes, 5 minutes, 15 minutes, 30 minutes, 1 hour, 2 hours, 3 hours, 4 hours, 6 hours, 8 hours and 24 hours. The blood samples were centrifuged at approximately 8,000 rpm for 6 minutes at 2-8° C. Plasma samples were then collected and stored frozen at approximately −80° C. until analysis. The bioanalytical work was performed using a LC-MS/MS system.

Series [2] in a line: Drug metabolism study with rat and human liver microsomes fortified with NADPH. It counts as in vitro ADME. The note with it: 10 μM, 1 mg/mL protein, 37° C., 60 minutes. As for the experimental part:
This study was carried out to evaluate drug metabolism of the test compounds by rat and human microsomes. Test compounds were incubated with liver microsomes of rat (BioreclamationIVT, Lot# NNK) and human (BioreclamationIVT, Lot# HPG) at 37° C. for 60 minutes. The substrate compound concentration was at 10 μM and final protein concentration in incubation mixtures was 1 mg/mL. Reaction was stopped by adding three fold acetonitrile to the reaction mixture. The samples were vortexed and centrifuged to precipitate the proteins. The supernatants were transferred to clean tubes for drying under a stream of N2. The dried residues were reconstituted with 30% acetonitrile. Aliquots were injected into an LC/UV/MS system for metabolite ID and profiling. The LC/UV/MS system was Agilent 1100 HPLC (pumps, autosampler and PDA) interfaced to LTQ ion trap mass spectrometer (ThermoFinnigan). HPLC column was Luna C18(2) column, 250×2.0 mm, 5 The HPLC mobile phase gradient system were water and acetonitrile with 0.05% trifluoroacetic acid in both solvents.
The experimental data indicated oxidation (hydroxylation) and de-alkylation were two of major metabolism paths for enasidenib and D8-enasidenib. For oxidation on aromatic ring, the molecular weights of hydroxylation products were the original ones plus an oxygen (+16). The C—H bond of enasidenib is replaced by C—OH. For oxidation on side chains, the molecular weights of hydroxylation products are different for enasidenib vs. D8-enasidenib. For enasidenib, the C—H bond is also replaced by C—OH and the difference in molecular weights is 16. However, since D8-enasidenib loses a deuterium due to hydroxylation (C-D is replaced by C—OH), the difference of its molecular weight to the original is 15 (that is +O+H−D=15). (FIG. 2) Thus, the hydroxylation products for aromatic ring and side chain for enasidenib and D8-enasidenib can be identified.
For orientation: Liver microsomes are a subcellular fraction often used to study metabolism.

The next series has as its target T1, IDH2 R140Q (Homo sapiens, UniProt P48735, R140Q).
T1 sequence (P48735 40-452 R140Q): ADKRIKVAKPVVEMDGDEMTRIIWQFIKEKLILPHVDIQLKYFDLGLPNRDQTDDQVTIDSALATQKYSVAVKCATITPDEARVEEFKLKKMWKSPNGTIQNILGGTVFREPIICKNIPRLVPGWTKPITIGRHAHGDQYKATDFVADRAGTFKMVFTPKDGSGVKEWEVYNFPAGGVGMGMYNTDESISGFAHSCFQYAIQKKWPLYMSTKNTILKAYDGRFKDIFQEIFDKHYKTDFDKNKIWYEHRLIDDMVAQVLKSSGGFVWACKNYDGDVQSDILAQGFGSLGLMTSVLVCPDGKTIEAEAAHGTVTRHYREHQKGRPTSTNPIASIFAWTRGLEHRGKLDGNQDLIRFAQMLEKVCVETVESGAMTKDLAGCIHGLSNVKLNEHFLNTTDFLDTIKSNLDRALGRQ
The series can be described thus: IC50 measurement against IDH2 R140Q (diaphorase/resazurin detection). It counts as biochemical. On the procedure: Compounds were tested in 10-dose IC50 mode with 3-fold serial dilution at a starting concentration of 10 μM. Substrate and co-factor were 8000 μM α-Ketoglutarate and 15 μM NADPH (reduced form of nicotinamide adenine dinucleotide phosphate). The reaction was carried out by mixing compound solutions with enzyme (IDH2 R140Q) and pre-incubated for 60 minutes. Then a four-fold substrate mixture was delivered to initiate the reaction. The solutions were incubated for 45 minutes at room temperature. Detection was performed using diaphorase and resazurin and measured in Envision (Perkin-Elmer). (Ex/Em=535/590 nm).
A general note: Alamar Blue is a resazurin reagent that responds to reducing activity.

Where [3] appears, read: Average of four animals, 1 mg/Kg IV, monkey.
[4] abbreviates: animal MK-101, 1 mg/Kg IV, monkey.
[5] abbreviates: animal MK-201, 1 mg/Kg IV, monkey.
[6] abbreviates: animal MK-301, 1 mg/Kg IV, monkey.
Setting [7] is: animal MK-401, 1 mg/Kg IV, monkey.

The term AUC denotes concentration integrated over time. In general, IC50 refers to the midpoint of a concentration-inhibition curve. Consider `[2H]C([2H])([2H])C(O)(C([2H])([2H])[2H])C([2H])([2H])Nc1nc(Nc2ccnc(C(F)(F)F)c2)nc(-c2cccc(C(F)(F)F)n2)n1` [D8-Enasidenib], for which the “AUC Differentiation (%)” value in series [1] (Average) was 62.0%; in series [1] (animal MK-101) it was 15.3%; in series [1] (animal MK-201), 69.1%; in series [1] (animal MK-301), 140%; in series [1] (animal MK-401) it was 23.5%. Besides, the AUC in series [1] (setting [3]) came out at 7900 ng·h/mL; in series [1] (setting [4]), 8970 ng·h/mL; in series [1] (setting [5]), 5810 ng·h/mL; in series [1] (setting [6]), 10300 ng·h/mL; in series [1] (setting [7]), 6530 ng·h/mL. Also, the “DMPK property over enasidenib (drug exposure AUC and half-life)” value in series [1] (monkey, 1 mg/Kg IV) is “superior DMPK property over enasidenib”. Besides, the “formation of hydroxylation product on aromatic ring compared to enasidenib” value in series [2] (FIG. 3) was “similar”. The “hydroxylation on the side chain compared to enasidenib” value in series [2] (FIG. 3) is “greatly reduced”. In series [2] (FIG. 4), the “formation of de-alkylation product compared to enasidenib” value is given as “significantly slowed down”. The compound also came in with an IC50 against IDH2 R140Q of 360 nM. Further, the “IC50 difference from that of enasidenib” value against IDH2 R140Q is not above 10%.

Take `CC(C)(O)CNc1nc(Nc2ccnc(C(F)(F)F)c2)nc(-c2cccc(C(F)(F)F)n2)n1` [Enasidenib, enasidenib, reference compound]: the exposure (AUC) came to 5200 ng·h/mL in series [1] (setting [3]); 7780 ng·h/mL in series [1] (setting [4]); 3440 ng·h/mL in series [1] (setting [5]); 4290 ng·h/mL in series [1] (setting [6]); 5290 ng·h/mL in series [1] (setting [7]). The IC50 at IDH2 R140Q stood at 362 nM.
